Source: US20170312293A1, “ANTIMICROBIAL WATER DISPERSIBLE COMPOSITION COMPRISING ZINC PYRITHIONE” (KOLON LIFE SCIENCE, INC., priority 2014, published 2017)
Structures can show the parent of a compound that is named as a salt.

Key:
Staphylococcus aureus = experiment: Challenge test (antibiotic activity) against S. aureus; assay type: cell-based; conditions: day on which all strains completely died; inoculum 1.0×10^6 cells/ml, 37° C., sampling days 1, 2, 3, 7; sample without zinc pyrithione, pH 5.5 to 9.0
Protocol: (§1) Respective samples were inoculated with three kinds of bacteria and two kinds of fungus and cultured for 7 days in order to measure antibiotic activity. On the first, second, third and seventh days, sampling was conducted, the sample was spread on a solid medium and antibiotic activity was checked. Strains used to measure antibiotic activity were Escherichia coli, Staphylococcus aureus, Pseudomonas aeruginosa for bacteria, and Candida albicans and Aspergillus niger for fungus. Regarding the media used respectively for the strains, TSA (tryptic soy agar) and NB (nutrient broth) were used for the three types of bacteria, and SDA (Sabouraud dextrose agar) and YM (yeast extract and malt extract) were used for Candida albicans (C. albicans), and SDA (Sabouraud dextrose agar) and MD (malt extract and dextrose) were used for Aspergillus niger (A. niger).
(§2) Antibiotic activity was evaluated based on the day on which all strains completely died, rather than lived and grew in the sample spread on the solid medium. First day death was considered to be excellent, second day death was considered to be good, third day death was considered to be medium, seventh day death was considered to be bad and no death until the seventh day was considered to be extremely bad.
(§3) A more detailed test method is as follows. […] 50 g of an aqueous dispersion supplemented with a suitable concentration of antibiotic agent was added to the container to prepare a sample. In consideration of the test method, in order to test zinc pyrithione having antibiotic activity, antibiotic activity of zinc pyrithione was preferably removed using a neutralization agent, but water was inevitably used to adjust a predetermined volume without adding zinc pyrithione due to absence of a suitable neutralization agent.
(§4) The prepared sample was inoculated with 1.0×10^6 cells/ml of E. coli, S. aureus and P. aeruginosa, and with 1.0×10^5 cells/ml of C. albicans and A. niger. Then, E. coli, S. aureus and P. aeruginosa were cultured at 37° C., while C. albicans and A. niger were cultured at 30° C. At the point of times of 1, 2, 3 and 7 days after culture, […] of the sample was obtained and spread on a solid medium and E. coli, S. aureus and P. aeruginosa were then cultured at 37° C. for 1 day for, and C. albicans and A. niger were cultured at 30° C. for 2 days. Then, whether the strains were alive or dead was checked. The respective antiseptics were used with reference to optimal pH, dosage and MIC recommended by the company of manufacture, wherein the test pH conditions were pH 5.5 to 9.0 at which zinc pyrithione was stable.

Escherichia coli = experiment: Challenge test (antibiotic activity) against E. coli; assay type: cell-based; conditions: day on which all strains completely died; inoculum 1.0×10^6 cells/ml, 37° C., sampling days 1, 2, 3, 7; sample without zinc pyrithione, pH 5.5 to 9.0
Protocol: as §1, §2, §3, §4

Pseudomonas aeruginosa = experiment: Challenge test (antibiotic activity) against P. aeruginosa; assay type: cell-based; conditions: day on which all strains completely died; inoculum 1.0×10^6 cells/ml, 37° C., sampling days 1, 2, 3, 7; sample without zinc pyrithione, pH 5.5 to 9.0
Protocol: as §1, §2, §3, §4

Aspergillus niger = experiment: Challenge test (antibiotic activity) against A. niger; assay type: cell-based; conditions: for Challenge test A. niger (antibiotic activity grade): day on which all strains completely died, inoculum 1.0×10^5 cells/ml, 30° C., sampling days 1, 2, 3, 7, sample without zinc pyrithione, pH 5.5 to 9.0
Protocol: as §1, §2, §3, §4

Candida albicans = experiment: Challenge test (antibiotic activity) against C. albicans; assay type: cell-based; conditions: day on which all strains completely died; inoculum 1.0×10^5 cells/ml, 30° C., sampling days 1, 2, 3, 7; sample without zinc pyrithione, pH 5.5 to 9.0
Protocol: as §1, §2, §3, §4

[1] = Stability of zinc pyrithione aqueous dispersion: layer separation degree via centrifugation, naked eye; assay type: physicochemical; conditions: zinc pyrithione aqueous dispersion including the antiseptic, layer separation degree (supernatant height / total height) via centrifugation
Protocol: (§5) First, a zinc pyrithione aqueous dispersion including an antiseptic which was identified to have antiseptic activity was prepared and then stored at room temperature (R.T.), at a temperature ranging from 10° C. to 20° C., or 60° C., and variation in physical properties related to stability and dispersibility were checked.
(§6) Variation in physical properties was determined depending on whether or not assay, viscosity, pH and particle size were changed, and variation in dispersibility was determined by checking layer separation degree using centrifugation and measuring dispersion stability using Turbiscan for detecting particle size variation and phase separation.
Stability was evaluated by checking a layer separation degree (production of supernatant) using centrifugation by the naked eye and was divided into grades based on the proportion of the height of the layer-separated supernatant with respect to the total height of the sample. With respect to the grades, layer separation degree (production of supernatant) of less than 5% was regarded as “high”, layer separation degree of 10% or less was regarded as “medium-high”, layer separation degree of 15% or less was regarded as “medium”, layer separation degree of 20% or less was regarded as “medium-low” and layer separation degree of higher than 20% was regarded as “low”.

[2] = Dispersion stability by Turbiscan (Turbiscan stability index); assay type: physicochemical; conditions: zinc pyrithione aqueous dispersion with the antiseptic stored at 60° C. for 2 weeks, lower = more stable, 0 = no variation
Protocol: as §5, §6
Meanwhile, from the result of determination of stability via separate testing of the zinc pyrithione aqueous dispersion composition using the Turbiscan, it could seen that the result obtained by storing at 60° C. for 2 weeks was similar to the result obtained by storing at room temperature for 3 months. Therefore, stability of the zinc pyrithione aqueous dispersion was compared based on stability index (Turbiscan stability index) associated with the result obtained by storing the test subject substances at 60° C. for 2 weeks.
In addition, the stability of conventionally used antiseptics was measured as Turbiscan-related stability and the result thus obtained is shown as a stability index in the following Table 2. […]

Row | Compound | Challenge test S. aureus (antibiotic activity grade) (Staphylococcus aureus) | Challenge test E. coli (antibiotic activity grade) (Escherichia coli) | Challenge test P. aeruginosa (antibiotic activity grade) (Pseudomonas aeruginosa) | Challenge test A. niger (antibiotic activity grade) (Aspergillus niger) | Challenge test C. albicans (antibiotic activity grade) (Candida albicans) | Stability of zinc pyrithione aqueous dispersion [1] | Stability index at 60° C. × 2 weeks [2] | Antibiotic activity to A. niger (Aspergillus niger; conclusion in words from the challenge test)
1 | O=C([O-])c1ccccc1O.[Na+] [Sodium salicylate] | Good (second day death was considered to be good) | Good (second day death was considered to be good) | Good (second day death was considered to be good) | Good (second day death was considered to be good) |  |  |  | 
2 | Ethylhexyl glycerin | Good (second day death was considered to be good) | Good (second day death was considered to be good) | Extremely bad (no death until the seventh day was considered to be extremely bad) | Medium (third day death was considered to be medium) | Good (second day death was considered to be good) |  |  | 
3 | O=S([O-])S(=O)(=O)[O-].[Na+].[Na+] [Sodium metabisulfite] | Good (second day death was considered to be good) | Good (second day death was considered to be good) | Good (second day death was considered to be good) | Good (second day death was considered to be good) |  |  |  | 
4 | CCCCC(O)CO (stereo not shown) [1,2-hexanediol] |  |  |  |  |  | Medium (layer separation degree of 15% or less was regarded as “medium”) |  | 
5 | CCCCCCC(O)CO (stereo not shown) [1,2-octanediol] |  |  |  |  |  | Medium (layer separation degree of 15% or less was regarded as “medium”) |  | 
6 | O=S([O-])[O-].[Na+].[Na+] [Sodium sulfite] | Good (second day death was considered to be good) | Good (second day death was considered to be good) | Good (second day death was considered to be good) | Good (second day death was considered to be good) |  | High (layer separation degree (production of supernatant) of less than 5% was regarded as “high”) |  | 
7 | C/C=C/C=C/C(=O)[O-].[K+] [Potassium sorbate] | Good (second day death was considered to be good) | Good (second day death was considered to be good) | Good (second day death was considered to be good) | Good (second day death was considered to be good) |  |  |  | 
8 | Cn1sccc1=O [MIT, methylisothiazolinone, reference compound] | Excellent (First day death was considered to be excellent) | Excellent (First day death was considered to be excellent) | Excellent (First day death was considered to be excellent) | Excellent (First day death was considered to be excellent) | Excellent (First day death was considered to be excellent) | High (layer separation degree (production of supernatant) of less than 5% was regarded as “high”) | 3.9 | 
9 | CC1(C)C(=O)N(CO)C(=O)N1CO [DMDMH, dimethylol dimethylhydantoin, reference compound] | Excellent (First day death was considered to be excellent) | Excellent (First day death was considered to be excellent) | Excellent (First day death was considered to be excellent) | Excellent (First day death was considered to be excellent) | Excellent (First day death was considered to be excellent) | High (layer separation degree (production of supernatant) of less than 5% was regarded as “high”) | 3.9 | 
10 | OCc1ccccc1 [Benzyl alcohol] |  |  |  |  |  | Medium-low (layer separation degree of 20% or less was regarded as “medium-low”) |  | 
11 | Cc1ncc(C[n+]2csc(CCO)c2C)c(N)n1 [Thiamine dilauryl sulfate, thiamine dilauryl sulphate] | Excellent (First day death was considered to be excellent) | Good (second day death was considered to be good) | Good (second day death was considered to be good) | Bad (seventh day death was considered to be bad) | Good (second day death was considered to be good) |  |  | vulnerable
12 | O=C([O-])c1ccccc1.[Na+] [Sodium benzoate] | Good (second day death was considered to be good) | Good (second day death was considered to be good) | Good (second day death was considered to be good) | Good (second day death was considered to be good) |  |  |  | 
